Here are results for three molecules from patent publication US4647562A, “Anti-spasmodic agents having three branch chains” (United Pharmaceuticals, Inc., priority 1985, dated 1987).

Structures can show the parent of a compound that is named as a salt. Where two headings read alike, the source gives them in different places.

Series [1] deals with smooth muscle. As to conditions: prior knowledge on thiphenamil hydrochloride; cited from earlier work.
The subject of series [2] is muscarinic receptors. It counts as binding, rabbit (New Zealand White). The conditions noted are these: 1.0 × 10^-5 M compound; 0.1 nM [^3 H]QNB; 37° C., 60 minutes; pH 7.4.
Series [3] deals with rabbit urinary bladder strip. The series can be described thus: Relaxation of bethanechol-contracted rabbit urinary bladder strip preparation. The conditions noted are these: for inhibition at 100 µM / inhibition at 10 µM / inhibition at 1 µM / inhibition at 0.1 µM / inhibition at 0.01 µM: Oryctolagus cuniculus. How it is done: The pharmacological actions of three anti-spasmodic compounds were studied in a rabbit urinary bladder strip preparation. In general, longitudinal strips were prepared from the base of freshly isolated rabbit bladders and were then suspended under near-physiological conditions in tissue baths. The strips were attached to force transducers and both contractile and relaxant activity was measured. To measure the relaxant effects on the anti-spasmodic compounds on previously-contracted bladder strips, the strips were initially exposed to the muscarinic receptor agonist bethanechol and allowed to reach a steady level of contractile activity for 20 minutes. At this point cumulative dose-responses to the various compounds were recorded. The rabbit abdomens were opened through a vertical midline incision. […] Tissues were allowed to equilibrate to a tension of 2 gm for sixty minutes during which time buffer was replaced at 20 minute intervals. […] Bethanechol was employed as the representative cholinergic agonist and, following equilibration, was added to the baths for a final concentration of 250 μM. The tissues were allowed 20 minutes to achieve a maintained level of contraction in response to bethanechol and, at this point, cumulative dose-response measurements for three anti-spasmodic compounds were started at concentrations ranging from 10^-8 M to 10^-4 M. Solutions were added in volumes up to 100 μl and were prepared fresh each day by dissolving them in distilled:deionzed water. […]

[4] abbreviates: 10^-4 moles/liter, bethanechol 250 μM.
Setting [5] is: 10^-5 moles/liter, bethanechol 250 μM.
Where [6] appears, read: 10^-6 moles/liter, bethanechol 250 μM.
The mark [7] stands for this setting: 10^-7 moles/liter, bethanechol 250 μM.
Setting [8] is: 10^-8 moles/liter, bethanechol 250 μM.
[9] abbreviates: pH 7.4, read-out: % of maximum relaxation.
Setting [10] is: read-out: % background relaxation.

In the case of `CCN(CC)CCSC(=O)C(c1ccccc1)c1ccccc1` [Thiphenamil hydrochloride], in series [1], the atropinic side effects entry was “without producing characteristic atropinic side effects on salivary and sweat glands, GI glands, the eye or the cardiovascular system”; the decrease spasm entry was “decrease spasm of the gastrointestinal tract, biliary tract, ureter and uterus”.
`CCN(CC)CCSC(=O)CC(C)(C)C` [t-butyl-acetyl-thio-S-(2-diethylaminoethyl)-ester.HCl]: the “% inhibition of ^3 H[QNB] binding” value in series [2] was found to be 76%. For the same molecule, the “Decrease in force of contraction of rabbit bladder strip” value (from here on “Decrease in force”) is listed as 1.08 gm in series [3] (setting [4]); 0.22 gm in series [3] (setting [5]); 0.03 gm in series [3] (setting [6]); 0.00 gm in series [3] (setting [7]); 0.03 gm in series [3] (setting [8]). Moreover, the “Increase in length of rabbit bladder strip” value (“Increase in length” below) was 3.9 cm in series [3] (setting [4]); 0.6 cm in series [3] (setting [5]); 0.1 cm in series [3] (setting [6]); 0.0 cm in series [3] (setting [7]); 0.1 cm in series [3] (setting [8]). Besides, the inhibition at 100 µM amounted to 98% in series [3] (pH 7.4, 10^-4 moles/liter, bethanechol 250 μM, maximal = pre-bethanechol baseline, read-out: % of maximum relaxation) and 80% in series [3] (10^-4 moles/liter, bethanechol 250 μM, read-out: % background relaxation). In addition, the inhibition at 10 µM in series [3] (pH 7.4, 10^-5 moles/liter, bethanechol 250 μM, maximal = pre-bethanechol baseline, read-out: % of maximum relaxation) is 15%; in series [3] (10^-5 moles/liter, bethanechol 250 μM, read-out: % background relaxation), 1.3%. Further, the inhibition at 1 µM in series [3] (pH 7.4, 10^-6 moles/liter, bethanechol 250 μM, maximal = pre-bethanechol baseline, read-out: % of maximum relaxation) worked out at 2.5%; in series [3] (10^-6 moles/liter, bethanechol 250 μM, read-out: % background relaxation), 0%. The inhibition at 0.1 µM stood at 0% in series [3] (pH 7.4, 10^-7 moles/liter, bethanechol 250 μM, maximal = pre-bethanechol baseline, read-out: % of maximum relaxation) and 0% in series [3] (10^-7 moles/liter, bethanechol 250 μM, read-out: % background relaxation). Besides, the inhibition at 0.01 µM in series [3] (pH 7.4, 10^-8 moles/liter, bethanechol 250 μM, maximal = pre-bethanechol baseline, read-out: % of maximum relaxation) was 2.5%; in series [3] (10^-8 moles/liter, bethanechol 250 μM, read-out: % background relaxation), 0%.
In the case of `CCN(CC)CCSC(=O)C(C)(C)C` [trimethylacetyl-thio-S-(2-diethylaminoethyl)-ester.HCl], in series [2], the “% inhibition of ^3 H[QNB] binding” value was found to be 66%. For the same molecule, in series [3] (setting [4]), the “Decrease in force” value is given as 0.82 gm and the “Increase in length” value was 4.1 cm. Moreover, in series [3] (setting [5]), the “Decrease in force” value is recorded as 0.40 gm and the “Increase in length” value is listed as 2.0 cm. Besides, in series [3] (setting [6]), the “Decrease in force” value is given as 0.38 gm and the “Increase in length” value was determined as 1.9 cm. Also, in series [3] (setting [7]), the “Decrease in force” value was determined as 0.38 gm and the “Increase in length” value was determined as 1.9 cm. For the same molecule, in series [3] (setting [8]), the “Decrease in force” value is 0.00 gm and the “Increase in length” value was found to be 0.0 cm. Also, in series [3] (setting [9]), the inhibition at 0.01 µM was 0%, the inhibition at 0.1 µM came to 16.5%, the inhibition at 1 µM was determined as 16.5% and the inhibition at 10 µM is 16.5%. Moreover, in series [3] (setting [9]), the inhibition at 100 µM was 35.7%. Further, in series [3] (setting [10]), the inhibition at 0.01 µM is 0%, the inhibition at 0.1 µM was 14.1%, the inhibition at 1 µM was 14.1% and the inhibition at 10 µM was determined as 14.1%. In addition, in series [3] (setting [10]), the inhibition at 100 µM worked out at 29.7%.
